Reference: paper PMC6260619, “Selective Cytotoxicity of Goniothalamin against Hepatoblastoma HepG2 Cells” (Molecules, 2011)
Read-outs that look alike come from different tables or passages of the source.

Key:
Format in all cases: cell-based, human
[1] = tested on: Chang cells; assay: Cell cycle PI analysis by flow cytometry, Chang
Protocol: The effect of goniothalamin on the cell cycle distribution of non-malignant Chang cells was also assessed. […] Accordingly, goniothalamin induced a marked apoptosis in a time-dependent manner at IC50 concentrations. As expected, the increase in the apoptotic population was associated with a concomitant enlargement of the pre-phase population, as observed in cell cycle analysis.
(§1) The treated cells were trypsinized and washed with PBS. After centrifugation, the supernatant was removed. Then, 1 × 10^6 cells were harvested and fixed in ice-cold ethanol (70%). The fixed cells were centrifuged at high speed (180 × g) for 10 minutes to adequately pellet down the cells that were suspended in the ethanol. The pellet was washed by the ice-cold PBS and then centrifuged again at 180 × g for 10 minutes. The final pellet was resuspended with 1 mL of RNase and incubated at 37 °C for 30 minutes. At the end of incubation, DNA binding dye PI (1 mg/mL) was added to give a final concentration of 50 µg/mL. The mixture was incubated at room temperature for 10 min in the dark. Data acquisition and analysis were performed in by flow cytometry FACS Calibur flow cytometer (Becton Dickinson, Franklin Lakes, NJ, USA) using CellQuest 3.3 software.

[2] = tested on: Chang cells; assay: MTT cytotoxicity assay, Chang; conditions: Homo sapiens, read-out: IC50 from MTT
Protocol: (§2) HepG2 and Chang cells were plated at 1 × 10^4 cells/well by adding 200 μL of a 5 × 10^4 cells/mL suspension to each well of a 96-well tissue culture plate. The plate was incubated for a sufficient time to assure attachment and 40% to 60% confluency. […] The last row was left as an untreated control. The plates were incubated at 37 °C, 5% CO2, for 24, 48 and 72 hours, respectively. After incubation with compounds, the media was aspirated off and replaced with fresh media. Then, MTT solution (20 μL) for a total volume of 200 μL was added in every well and incubated for 4 to 6 hours at 37 °C with 5% CO2. After that, MTT-containing medium was removed gently and replaced with DMSO (200 μL per well) to mix the formazan crystals until dissolved. The plates were read on microtiter plate reader at 570 nm. For each compound tested, the IC50 (concentration of drug needed to inhibit cell growth by 50%) is generated from the dose-response curves for each cell line.

[3] = tested on: HepG2 cells; assay: MTT cytotoxicity assay, HepG2; conditions: Homo sapiens, read-out: IC50 from MTT
Protocol: as §2

[4] = tested on: HepG2 cells; assay: Cell cycle PI analysis by flow cytometry, HepG2
Protocol: The ability of a substance to affect specific phases of the cell cycle may provide clues as to its mechanism(s) of action. To determine the effects of goniothalamin on the cell cycle, HepG2 cells were treated with IC50 levels of goniothalamin (determined from the MTT assay) for 24, 48 and 72 hours, respectively. The cells were stained with PI and the DNA contents analyzed by flow cytometry.
as §1

[5] = 24h, at IC50 (goniothalamin 79.10 µM; doxorubicin 0.83 µM)
[6] = 48h, at IC50 (goniothalamin 63.75 µM; doxorubicin 0.41 µM)
[7] = 72h, at IC50 (goniothalamin 35.01 µM; doxorubicin 0.28 µM)
[8] = HepG2, 24h, at IC50 (goniothalamin 9.2 µM; doxorubicin 2.2 µM)
[9] = HepG2, 48h, at IC50 (goniothalamin 8.3 µM; doxorubicin 4.3 µM)
[10] = HepG2, 72h, at IC50 (goniothalamin 4.6 µM; doxorubicin […])

COc1cccc2c1C(=O)c1c(O)c3c(c(O)c1C2=O)C[C@@](O)(C(=O)CO)C[C@@H]3O[C@H]1C[C@H](N)[C@H](O)[C@H](C)O1 [Doxorubicin, reference compound] was tested. Which G0/G1 [1, 5] did it give?
The G0/G1 was 50.84 ± 6.03%.

And the “G2+M” value [1, 5]?
The value was 16.36 ± 1.28%.

What about the S [1, 5] of the same compound?
The S was 22.09 ± 0.03%.

What about the SubG0/G1 [1, 5] of the same compound?
Its SubG0/G1 is 10.71 ± 7.28%.

What about the G0/G1 [1, 6] of the same compound?
The G0/G1 was 62.43 ± 9.80%.

What about the “G2+M” value [1, 6] of the same compound?
Its value is 10.37 ± 0.21%.

What about the S [1, 6] of the same compound?
The S was 15.31 ± 3.10%.

And the SubG0/G1 [1, 6]?
Its SubG0/G1 is 11.89 ± 6.49%.

What about the G0/G1 [1, 7] of the same compound?
The G0/G1 was 54.12 ± 1.52%.

And the “G2+M” value [1, 7]?
Its value is 8.63 ± 2.17%.

And the S [1, 7]?
The S was 15.19 ± 2.83%.

And the SubG0/G1 [1, 7]?
The SubG0/G1 was 22.06 ± 5.17%.

And the IC50 ([2]; 24 h)?
Its IC50 is 830 nM.

What about the IC50 ([2]; 48 h) of the same compound?
The IC50 was 410 nM.

And the IC50 ([2]; 72 h)?
Its IC50 is 280 nM.

What about the IC50 ([3]; HepG2, 24 h) of the same compound?
Its IC50 is 2200 nM.

What about the IC50 ([3]; HepG2, 48 h) of the same compound?
The IC50 was 4300 nM.

And the IC50 ([3]; HepG2, 72 h)?
The IC50 was 1060 nM.

What about the G0/G1 [4, 8] of the same compound?
The G0/G1 was 76.46 ± 3.80%.

And the “G2+M” value [4, 8]?
Its value is 11.64 ± 3.02%.

And the S [4, 8]?
The S was 8.54 ± 0.38%.

And the SubG0/G1 [4, 8]?
The SubG0/G1 was 3.36 ± 1.02%.

What about the G0/G1 [4, 9] of the same compound?
The G0/G1 was 65.17 ± 12.80%.

And the S [4, 9]?
Its S is 15.15 ± 10.96%.

And the SubG0/G1 [4, 9]?
Its SubG0/G1 is 5.14 ± 2.53%.

And the G0/G1 [4, 10]?
The G0/G1 was 60.64 ± 0.79%.

And the “G2+M” value [4, 10]?
Its value is 2.66 ± 0.37%.

And the S [4, 10]?
Its S is 5.91 ± 0.15%.

What about the SubG0/G1 [4, 10] of the same compound?
The SubG0/G1 was 30.79 ± 0.57%.
